Where two headings read alike, the source gives them in different places.
Assays:
[1] = system: HDL; assay: Fasting lipid panel: HDL, CHASE clinical study; format: in vivo, human; conditions: for HDL V2 to V6 % Change Max / HDL V2 to V6 % Change Mean (SD) / HDL V2 to V6 % Change Median / HDL V2 to V6 % Change Min / HDL V2 to V6 Change Max / HDL V2 to V6 Change Mean (SD) / HDL V2 to V6 Change Median / HDL V2 to V6 Change Min: baseline to Week 12
Description: Blood samples shall be obtained under fasted conditions for a lipid panel at V2, V4, V6, V7, and V8. This panel shall include total cholesterol, LDL-C, VLDL-C, HDL-C, and triglycerides. A minimum eight-hour fast (water allowed) is required for the lipid panel.
Fasting lipid profiles and fasting chemistry panels may be obtained within the visit time window on a day separate from the scheduled office visit, within two days before or after the other study procedures. A minimum of eight hours fasted (water allowed ad lib) is required.
Table 7M provides the changes in lipid levels (mg/dL) (V2 to V6) for subjects.

[2] = Astaxanthin levels in plasma (PK), CHASE clinical study; format: in vivo, human; conditions: for concentration at 12 week: human, oral
Description: Blood samples shall be collected for astaxanthin analysis at V2, V4, V6, and V8.
The approximate time of the most recent dose prior to PK sampling shall be documented. PK sampling is sparse, sample acquisition in relationship to the most recent dose will vary, and formal PK calculations (e.g., Tmax, Cmax, T1/2, AUC) are not possible from the collections scheduled. Analysis will consist of a tabular listing and comparison by treatment group with calculation of the mean, median, standard deviation, maximum, and minimum at the nominal visits. Sub-analysis by subject demographic and clinical characteristics (e.g., gender, age, weight, and smoking status) may be performed at the discretion of the Sponsor.
PK samples will be collected into a 6.0 mL K2EDTA tube, gently inverted sufficient times to mix the sample and anticoagulant, and placed in an ice bath for 15 minutes.
The blood samples will be centrifuged at 3500 rpm for ten minutes at room temperature for 10 minutes. Any hemolyzed or clotted samples will be documented in the study data.
All resultant plasma will be split into two approximately equal aliquots and frozen at −60 to −90° C. Samples may be initially placed on dry ice prior to being stored in the appropriate freezer.

[3] = Group X 12 mg BID, V2 baseline pre-dose, all subjects
[4] = Group X 12 mg BID, V2 baseline pre-dose, subjects with hyperlipidemia
[5] = Group X 12 mg BID, V6 Week 12, all subjects
[6] = Group X 12 mg BID, V6 Week 12, subjects with hyperlipidemia
[7] = Group X 12 mg BID, all subjects
[8] = Group X 12 mg BID, subjects with hyperlipidemia
[9] = Group Z 48 mg BID, V2 baseline pre-dose, all subjects
[10] = Group Z 48 mg BID, V2 baseline pre-dose, subjects with hyperlipidemia
[11] = Group Z 48 mg BID, V6 Week 12, all subjects
[12] = Group Z 48 mg BID, V6 Week 12, subjects with hyperlipidemia
[13] = Group Z 48 mg BID, all subjects
[14] = Group Z 48 mg BID, subjects with hyperlipidemia
[15] = Group X 12 mg BID, V2 baseline pre-dose, BQL (less than 9.77 ng/mL) treated as 4.885
[16] = Group Z 48 mg BID, V2 baseline pre-dose, BQL (less than 9.77 ng/mL) treated as 4.885

## CC1=C(/C=C/C(C)=C/C=C/C(C)=C/C=C/C=C(C)/C=C/C=C(C)/C=C/C2=C(C)C(=O)C(O)CC2(C)C)C(C)(C)CC(O)C1=O (centres unmarked) [Astaxanthin, astaxanthin]
[1]; [3]
  HDL Max: 73.00 mg/dL
  HDL Mean (SD): 46.00 (17.37) mg/dL
  HDL Median: 42.00 mg/dL
  HDL Min: 24.00 mg/dL
[1]; [4]
  HDL Max: 67.00 mg/dL
  HDL Mean (SD): 45.38 (17.08) mg/dL
  HDL Median: 42.50 mg/dL
  HDL Min: 24.00 mg/dL
[1]; [5]
  HDL Max: 68.00 mg/dL
  HDL Mean (SD): 45.27 (13.68) mg/dL
  HDL Median: 42.00 mg/dL
  HDL Min: 29.00 mg/dL
[1]; [6]
  HDL Max: 65.00 mg/dL
  HDL Mean (SD): 44.13 (13.24) mg/dL
  HDL Median: 41.00 mg/dL
  HDL Min: 29.00 mg/dL
[1]; [7]
  HDL V2 to V6 % Change Max: 24.14%
  HDL V2 to V6 % Change Mean (SD): 1.78 (14.18) %
  HDL V2 to V6 % Change Median: −2.99%
  HDL V2 to V6 % Change Min: −16.3%
  HDL V2 to V6 Change Max: 7.00 mg/dL
  HDL V2 to V6 Change Mean (SD): −0.73 (5.75) mg/dL
  HDL V2 to V6 Change Median: -1.00 mg/dL
  HDL V2 to V6 Change Min: -9.00 mg/dL
[1]; [8]
  HDL V2 to V6 % Change Max: 24.14%
  HDL V2 to V6 % Change Mean (SD): 0.85 (15.61) %
  HDL V2 to V6 % Change Median: −3.06%
  HDL V2 to V6 % Change Min: −16.3%
  HDL V2 to V6 Change Max: 7.00 mg/dL
  HDL V2 to V6 Change Mean (SD): −1.25 (6.11) mg/dL
  HDL V2 to V6 Change Median: -1.50 mg/dL
  HDL V2 to V6 Change Min: -9.00 mg/dL
[1]; [9]
  HDL Max: 77.00 mg/dL
  HDL Mean (SD): 47.79 (14.77) mg/dL
  HDL Median: 40.00 mg/dL
  HDL Min: 29.00 mg/dL
[1]; [10]
  HDL Max: 77.00 mg/dL
  HDL Mean (SD): 44.93 (13.59) mg/dL
  HDL Median: 40.00 mg/dL
  HDL Min: 29.00 mg/dL
[1]; [11]
  HDL Max: 75.00 mg/dL
  HDL Mean (SD): 47.11 (14.59) mg/dL
  HDL Median: 41.00 mg/dL
  HDL Min: 30.00 mg/dL
[1]; [12]
  HDL Max: 72.00 mg/dL
  HDL Mean (SD): 44.71 (13.00) mg/dL
  HDL Median: 39.00 mg/dL
  HDL Min: 32.00 mg/dL
[1]; [13]
  HDL V2 to V6 % Change Max: 24.53%
  HDL V2 to V6 % Change Mean (SD): −3.43 (10.55) %
  HDL V2 to V6 % Change Median: −5.80%
  HDL V2 to V6 % Change Min: −22.7%
  HDL V2 to V6 Change Max: 13.00 mg/dL
  HDL V2 to V6 Change Mean (SD): −1.72 (5.19) mg/dL
  HDL V2 to V6 Change Median: -3.00 mg/dL
  HDL V2 to V6 Change Min: -10.0 mg/dL
[1]; [14]
  HDL V2 to V6 % Change Max: 24.53%
  HDL V2 to V6 % Change Mean (SD): −2.50 (11.26) %
  HDL V2 to V6 % Change Median: −4.04%
  HDL V2 to V6 % Change Min: −22.7%
  HDL V2 to V6 Change Max: 13.00 mg/dL
  HDL V2 to V6 Change Mean (SD): −1.36 (5.64) mg/dL
  HDL V2 to V6 Change Median: -2.00 mg/dL
  HDL V2 to V6 Change Min: -10.0 mg/dL
[2]; [15]
  astaxanthin levels Max: 4.89, 4.89 ng/mL
  astaxanthin levels Mean (SD): 4.89 (0.00) ng/mL
  astaxanthin levels Median: 4.89 ng/mL
  astaxanthin levels Min: 4.89, 4.89 ng/mL
[2]; Group X 12 mg BID, V6 Week 12
  astaxanthin levels Max: 1282 ng/mL
  astaxanthin levels Min: 190.9 ng/mL
[2]; [16]
  astaxanthin levels Max: 221.0 ng/mL
  astaxanthin levels Mean (SD): 17.12 (49.44) ng/mL
  astaxanthin levels Median: 4.89 ng/mL
  astaxanthin levels Min: 4.89 ng/mL
[2]; Group Z 48 mg BID, V6 Week 12
  astaxanthin levels Max: 7030 ng/mL
  astaxanthin levels Min: 409.0 ng/mL
[2]; 12 mg, Group X 12 mg BID, V6 Week 12, read-out: astaxanthin levels Mean (SD)
  concentration at 12 week: 785 ng/mL
[2]; 12 mg, Group X 12 mg BID, V6 Week 12, read-out: astaxanthin levels Median
  concentration at 12 week: 790 ng/mL
[2]; 48 mg, Group Z 48 mg BID, V6 Week 12, read-out: astaxanthin levels Mean (SD)
  concentration at 12 week: 2590 ng/mL
[2]; 48 mg, Group Z 48 mg BID, V6 Week 12, read-out: astaxanthin levels Median
  concentration at 12 week: 2180 ng/mL
